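1) Cells in 96-well plates. 2) Compound, 48 h, 5 concentrations. 3) Linear interpolation between surrounding doses. 4) Unreached endpoint = highest concentration. GI50 is the concentration that inhibits growth by half.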 Calls of active or inactive are those of the source. No stated cut-off is given here; in the data, active = GI50 up to about 1.1 µM and inactive = higher.
Columns and labels:
Experiment in all cases: DTP human tumour cell line panel, 48 h
786-0 = test system: 786-0
A498 = test system: A498
A549 = test system: A549
ACHN = test system: ACHN
BT-549 = test system: BT-549
CAKI-1 = test system: CAKI-1
CCRF-CEM = test system: CCRF-CEM
COLO 205 = test system: COLO 205
DU-145 = test system: DU-145
EKVX = test system: EKVX
HCC 2998 = test system: HCC 2998
HCT-116 = test system: HCT-116
HCT-15 = test system: HCT-15
HL-60 = test system: HL-60
HOP-62 = test system: HOP-62
HOP-92 = test system: HOP-92
HT-29 = test system: HT-29
Hs-578T = test system: Hs-578T
IGROV-1 = test system: IGROV-1
K562 = test system: K562
KM12 = test system: KM12
LOX IMVI = test system: LOX IMVI
M14 = test system: M14
MCF7 = test system: MCF7
MDA-MB-231 = test system: MDA-MB-231
MDA-MB-435 = test system: MDA-MB-435
MOLT-4 = test system: MOLT-4
Malme-3M = test system: Malme-3M
NCI-H226 = test system: NCI-H226
NCI-H23 = test system: NCI-H23
NCI-H460 = test system: NCI-H460
NCI-H522 = test system: NCI-H522
NCI/ADR-RES = test system: NCI/ADR-RES
OVCAR-3 = test system: OVCAR-3
OVCAR-5 = test system: OVCAR-5
OVCAR-8 = test system: OVCAR-8
PC-3 = test system: PC-3
RPMI-8226 = test system: RPMI-8226
RXF 393 = test system: RXF 393
SF-268 = test system: SF-268
SF-295 = test system: SF-295
SF-539 = test system: SF-539
SK-MEL-28 = test system: SK-MEL-28
SK-MEL-2 = test system: SK-MEL-2
SK-OV-3 = test system: SK-OV-3
SNB-19 = test system: SNB-19
SNB-75 = test system: SNB-75
SR = test system: SR
SW-620 = test system: SW-620
T47D = test system: T47D
TK-10 = test system: TK-10
U-251 = test system: U-251
UACC-257 = test system: UACC-257
UO-31 = test system: UO-31
OVCAR-4 = test system: OVCAR-4
SK-MEL-5 = test system: SK-MEL-5
SN12C = test system: SN12C
UACC-62 = test system: UACC-62

Measured: GI50

C/C(=N\NC(=S)N1CCCCCC1)c1cccc2cccnc12
active: ACHN 0.375 µM | CAKI-1 0.355 µM | CCRF-CEM < 0.01 µM | COLO 205 0.459 µM | HCT-116 0.634 µM | K562 0.131 µM | LOX IMVI 0.767 µM | MCF7 0.984 µM | MOLT-4 0.134 µM | NCI-H226 0.589 µM | NCI-H460 0.681 µM | NCI-H522 0.193 µM | NCI/ADR-RES 1.03 µM | OVCAR-3 0.0203 µM | RPMI-8226 0.109 µM | SF-295 0.271 µM | SF-539 0.845 µM | SR < 0.01 µM | T47D 0.966 µM | U-251 0.839 µM
0.287 µM: HCT-15
inactive: 786-0 2.01 µM | A498 5.64 µM | A549 1.13 µM | BT-549 16 µM | DU-145 2.95 µM | EKVX 1.29 µM | HCC 2998 2.76 µM | HL-60 1.25 µM | HOP-62 1.15 µM | HOP-92 11.7 µM | HT-29 1.4 µM | Hs-578T 19.7 µM | IGROV-1 1.86 µM | KM12 1.42 µM | M14 1.55 µM | MDA-MB-231 2.12 µM | MDA-MB-435 1.71 µM | Malme-3M 3.17 µM | NCI-H23 1.32 µM | OVCAR-5 > 19.9 µM | OVCAR-8 1.38 µM | PC-3 3.81 µM | RXF 393 > 26.4 µM | SF-268 4.29 µM | SK-MEL-28 1.77 µM | SK-MEL-2 19.5 µM | SK-OV-3 3.77 µM | SNB-19 1.76 µM | SNB-75 23 µM | SW-620 1.55 µM | TK-10 2.48 µM | UACC-257 2.58 µM | UO-31 1.94 µM

CC(=O)N(C)c1cc(NCc2ccccc2)ccc1OCc1ccccc1
19.1 µM: HCT-15
inactive: 786-0 27.9 µM | A498 16.3 µM | A549 18.3 µM | ACHN 17.3 µM | BT-549 20.6 µM | CAKI-1 17.7 µM | CCRF-CEM 23.6 µM | COLO 205 22.3 µM | DU-145 17.1 µM | EKVX 18.5 µM | HCC 2998 18.8 µM | HCT-116 31.8 µM | HL-60 26 µM | HOP-62 33 µM | HOP-92 12.7 µM | HT-29 20.6 µM | Hs-578T 31.4 µM | IGROV-1 16.4 µM | K562 22.1 µM | KM12 21.3 µM | LOX IMVI 20 µM | M14 22.1 µM | MCF7 17.9 µM | MDA-MB-231 15.8 µM | MDA-MB-435 16.6 µM | MOLT-4 25.8 µM | Malme-3M 16.1 µM | NCI-H226 18.4 µM | NCI-H23 24.4 µM | NCI-H460 17.9 µM | NCI-H522 17.9 µM | NCI/ADR-RES 20.2 µM | OVCAR-3 16.6 µM | OVCAR-4 18.7 µM | OVCAR-5 19.3 µM | OVCAR-8 17.3 µM | RXF 393 14.8 µM | SF-268 14.7 µM | SF-295 15.4 µM | SF-539 17.3 µM | SK-MEL-28 18.9 µM | SK-MEL-2 16.9 µM | SK-MEL-5 18.3 µM | SK-OV-3 21.7 µM | SN12C 17.5 µM | SNB-19 17.9 µM | SNB-75 22.2 µM | SR 15.5 µM | SW-620 24.9 µM | T47D 36.6 µM | TK-10 17.7 µM | U-251 17.4 µM | UACC-257 17.3 µM | UACC-62 16.4 µM | UO-31 14.8 µM

C/C(=C\COP(=O)(O)CP(=O)(O)O)CC/C=C(\C)CNc1ccccc1
> 100 µM: HCT-15
inactive: 786-0 > 100 µM | A549 > 100 µM | ACHN > 100 µM | BT-549 14.6 µM | CAKI-1 > 100 µM | CCRF-CEM > 100 µM | COLO 205 > 100 µM | DU-145 > 100 µM | EKVX 15.7 µM | HCT-116 > 100 µM | HL-60 > 100 µM | HOP-62 > 100 µM | HT-29 > 100 µM | Hs-578T > 100 µM | IGROV-1 > 100 µM | K562 > 100 µM | KM12 > 100 µM | LOX IMVI > 100 µM | M14 > 100 µM | MCF7 > 100 µM | MDA-MB-231 > 100 µM | MDA-MB-435 > 100 µM | MOLT-4 > 100 µM | NCI-H226 > 100 µM | NCI-H23 6.28 µM | NCI-H460 > 100 µM | NCI-H522 > 100 µM | NCI/ADR-RES > 100 µM | OVCAR-3 > 100 µM | OVCAR-5 > 100 µM | OVCAR-8 > 100 µM | PC-3 > 100 µM | RPMI-8226 > 100 µM | RXF 393 > 100 µM | SF-268 > 100 µM | SF-295 > 100 µM | SF-539 > 100 µM | SK-MEL-28 > 100 µM | SK-MEL-2 > 100 µM | SK-MEL-5 > 100 µM | SK-OV-3 > 100 µM | SN12C > 100 µM | SNB-19 > 100 µM | SNB-75 > 100 µM | SW-620 > 100 µM | T47D > 100 µM | TK-10 > 100 µM | U-251 > 100 µM | UACC-257 > 100 µM | UACC-62 > 100 µM | UO-31 > 100 µM
